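Each compound was tested at five concentrations against cells in 96-well plates for 48 hours. GI50: concentration for 50% inhibition of growth.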 Calls of active or inactive are those of the source. Cut-off read from the data, not from the text of the source: active = GI50 up to about 1.1 µM and inactive = higher.
What was measured:
Assay in all cases: growth of human tumour cells (NCI), 48 h
[1] = test system: OVCAR-8
[2] = test system: Hs-578T
[3] = test system: LOX IMVI
[4] = test system: OVCAR-3
[5] = test system: SNB-19
[6] = test system: SN12C
[7] = test system: UACC-62
[8] = test system: U-251
[9] = test system: Malme-3M
[10] = test system: TK-10
[11] = test system: OVCAR-5
[12] = test system: DU-145
[13] = test system: KM12
[14] = test system: SK-MEL-2
[15] = test system: NCI-H226
[16] = test system: HCC 2998
[17] = test system: HOP-92
[18] = test system: SW-620
[19] = test system: A498
[20] = test system: SNB-75

Measured: GI50

OC(c1ccccc1)(c1ccccc1)c1nccc2ccccc12
inactive: [1] 37.8 µM | [2] 28.5 µM | [3] 17.6 µM | [4] 17.2 µM | [5] 27.9 µM | [6] 44.5 µM | [7] 21.5 µM | [8] 29.3 µM | [9] 30 µM | [10] 12.9 µM | [11] 31.7 µM | [12] 41.7 µM | [13] 35.9 µM

COc1cc([C@H]2CC(=O)C[C@H](c3cc(OC)c(OC)c(OC)c3)C23C(=O)c2ccccc2C3=O)cc(OC)c1OC
inactive: [1] 40 µM | [14] 42.4 µM | [15] 54.5 µM | [2] 46.6 µM | [16] > 100 µM | [4] 57 µM | [5] > 100 µM | [6] > 100 µM | [17] 33.6 µM | [7] 43.1 µM | [8] 41.3 µM | [18] > 100 µM | [9] > 100 µM | [10] > 100 µM | [11] > 100 µM | [12] > 100 µM | [13] > 100 µM

CC(C)(C)OC/C=C1\C(=O)O[C@H]2C[C@@H](O[Si](C)(C)C(C)(C)C)C[C@@H]12
inactive: [1] 81.1 µM | [14] > 100 µM | [15] > 100 µM | [16] > 100 µM | [3] 98.2 µM | [4] 49.9 µM | [5] > 100 µM | [6] > 100 µM | [17] 36.4 µM | [8] 83 µM | [19] > 100 µM | [18] > 100 µM | [9] > 100 µM | [10] > 100 µM | [11] > 100 µM | [12] > 100 µM | [13] 67.9 µM | [20] 63.7 µM

O=C(CCCN1CCC2(CC1)CC(=O)N(N1CCOCC1)C2=O)c1ccccc1
inactive: [1] > 100 µM | [15] > 100 µM | [16] > 100 µM | [3] > 100 µM | [4] > 100 µM | [5] > 100 µM | [6] > 100 µM | [7] > 100 µM | [8] > 100 µM | [18] > 100 µM | [9] > 100 µM | [10] > 100 µM | [11] > 100 µM | [12] > 100 µM | [13] > 100 µM | [20] > 100 µM

COc1ccc(Nc2ccc3ccccc3c2-c2c(O)ccc3ccccc23)cc1
inactive: [1] 18.1 µM | [14] 14.4 µM | [15] 16.6 µM | [16] 15.7 µM | [3] 17.9 µM | [4] 14.6 µM | [5] 17.3 µM | [6] 15.5 µM | [17] 4.16 µM | [7] 29.9 µM | [8] 22.6 µM | [18] 13.9 µM | [10] 27.7 µM | [11] 16.9 µM | [12] 17.5 µM | [13] 16.1 µM | [20] 19.9 µM

O=C(Cc1csc(N/N=C2\C(=O)Nc3ccccc32)n1)Nc1ccccc1
inactive: [1] 21.1 µM | [14] 91.8 µM | [15] 10 µM | [16] 31.6 µM | [3] 46.5 µM | [4] 24.2 µM | [5] 26.9 µM | [6] 36.6 µM | [17] 35.7 µM | [8] 22.6 µM | [19] 40.6 µM | [18] 33 µM | [10] 44.1 µM | [11] > 100 µM | [12] 24.9 µM | [13] 29.2 µM | [20] 28.5 µM

N#Cc1ccccc1C#C/C=C\C#Cc1ccccn1
inactive: [1] 13.1 µM | [14] 15 µM | [2] 16.4 µM | [16] 14.5 µM | [4] 4.27 µM | [5] 25.9 µM | [6] 20.4 µM | [17] 26.9 µM | [7] 15.3 µM | [8] 18.5 µM | [18] 12.6 µM | [9] 19.3 µM | [10] 30.9 µM | [11] 28.6 µM | [12] 28.6 µM | [20] 24.8 µM

[N-]=[N+]=CC(=O)CCC(=O)N(c1ccccc1)c1ccccc1
inactive: [1] > 10 µM | [14] 6.98 µM | [15] > 10 µM | [3] > 10 µM | [4] > 10 µM | [5] > 10 µM | [6] > 10 µM | [17] > 10 µM | [8] > 10 µM | [19] > 10 µM | [18] > 10 µM | [9] > 10 µM | [10] > 10 µM | [11] > 10 µM | [12] > 10 µM | [13] > 10 µM | [20] > 10 µM

Cc1ccc(/C=C2\N=C(N3CCCCC3)NC2=O)cc1
inactive: [1] 64.1 µM | [14] > 100 µM | [15] > 100 µM | [2] 70.8 µM | [16] 58.1 µM | [3] 94.4 µM | [4] > 100 µM | [5] > 100 µM | [6] > 100 µM | [17] > 100 µM | [7] > 100 µM | [8] > 100 µM | [18] > 100 µM | [9] > 100 µM | [10] > 100 µM | [11] > 100 µM | [12] > 100 µM | [13] > 100 µM

Clc1ccc(-c2nc3cc(Cl)ccc3[nH]2)cc1
inactive: [1] 37.6 µM | [14] 26.1 µM | [15] 50 µM | [2] 30.8 µM | [16] 29.8 µM | [3] 29.1 µM | [4] 28.9 µM | [5] 41.4 µM | [6] 26.2 µM | [17] 27.7 µM | [7] 32.7 µM | [8] 31.5 µM | [18] 42.6 µM | [9] 48.2 µM | [10] 30.8 µM | [12] 31.8 µM | [13] 24 µM | [20] 40.1 µM

COC1C(O)C(C)OC(O[C@H]2CC[C@@]3(C)C(CC[C@@H]4[C@@H]3CC[C@]3(C)[C@@H](C(C)OC5OC(CO)C(O)C(O)C5O)CC[C@]43O)C2)C1O (stereo partly drawn)
inactive: [1] > 25 µM | [14] > 25 µM | [15] > 25 µM | [2] > 25 µM | [16] > 25 µM | [3] > 25 µM | [4] > 25 µM | [5] > 25 µM | [6] > 25 µM | [17] > 25 µM | [7] > 25 µM | [8] > 25 µM | [19] > 25 µM | [18] > 25 µM | [10] > 25 µM | [11] > 25 µM | [13] > 25 µM | [20] > 25 µM

COC(=O)[C@]1(c2cc3ccccc3[nH]2)CC2CN(C(=O)OCc3ccccc3)C1C=C2OC (stereo partly drawn)
inactive: [1] 43.4 µM | [14] 17.5 µM | [15] 23.1 µM | [16] 21.5 µM | [3] 34 µM | [4] 24 µM | [5] 42.1 µM | [6] 36.1 µM | [17] 32.5 µM | [7] 16.8 µM | [8] 26.6 µM | [18] 41.5 µM | [9] 28.9 µM | [10] 48.1 µM | [11] 21.3 µM | [12] 35.5 µM | [13] 29 µM | [20] 23 µM

Source: ChEMBL document CHEMBL1201862, “PubChem BioAssay data set” (2004)
